In publication PMC3437750 (Journal of medicinal chemistry, 2011):

How the values were obtained:
purified human PMM2 = molecular target: T1, purified human PMM2 (Homo sapiens, UniProt O15305); assay: PMM2 in vitro enzymatic concentration-response assay; type: biochemical; conditions: tested up to 20 µM where stated
T1 sequence (O15305 1-246): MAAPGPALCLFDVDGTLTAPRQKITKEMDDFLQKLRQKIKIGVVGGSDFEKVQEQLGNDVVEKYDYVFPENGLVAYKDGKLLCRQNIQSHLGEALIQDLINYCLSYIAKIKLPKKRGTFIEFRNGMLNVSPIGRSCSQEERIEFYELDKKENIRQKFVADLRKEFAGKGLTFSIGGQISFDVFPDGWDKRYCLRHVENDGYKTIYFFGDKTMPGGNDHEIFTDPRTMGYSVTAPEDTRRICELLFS

purified human PMI = molecular target: T2, purified human PMI (Homo sapiens, UniProt P34949); type: biochemical
T2 sequence (P34949 1-423): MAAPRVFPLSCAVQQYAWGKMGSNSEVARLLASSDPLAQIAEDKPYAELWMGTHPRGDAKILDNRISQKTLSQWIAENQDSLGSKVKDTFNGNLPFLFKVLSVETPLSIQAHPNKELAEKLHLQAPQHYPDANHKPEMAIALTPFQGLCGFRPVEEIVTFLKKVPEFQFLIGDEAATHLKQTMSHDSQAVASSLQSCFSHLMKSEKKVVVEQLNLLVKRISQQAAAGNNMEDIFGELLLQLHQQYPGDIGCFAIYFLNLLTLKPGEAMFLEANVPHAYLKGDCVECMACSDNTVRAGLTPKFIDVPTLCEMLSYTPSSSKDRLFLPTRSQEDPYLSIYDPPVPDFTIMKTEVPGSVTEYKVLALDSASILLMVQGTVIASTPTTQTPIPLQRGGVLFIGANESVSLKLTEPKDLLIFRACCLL

[1] = Glutathione conjugation assay; conditions: 10 µM, 2 mg/mL rat hepatic S9, 10 mM glutathione, 37°C, 2 hours
[2] = Parallel Artificial Membrane Permeation Assay; type: in vitro ADME; conditions: assessed in vitro, PAMPA

SMILES | PMM2 inhibition (in words) (purified human PMM2) | GSH adduct formation by LCMS (in words) [1] | further results
O=c1c2ccccc2sn1-c1ccccc1 [Compound 1, 2-Phenyl-2-hydrobenzo[d]isothiazol-3-one] | selective for PMI over PMM2 |  | 
O=c1c2ccccc2sn1-c1ccc(C(F)(F)F)cc1 [Compound 6, 2-[4-(Trifluoromethyl)phenyl]-2-hydrobenzo[d]isothiazol-3-one] | inactive against both enzymes |  | cellular toxicity (35S-Met/Cys incorporation, in words) (Hela cells): exhibits cellular toxicity; PMI inhibition (in words) (purified human PMI): inactive against both enzymes
Cc1ccc(C)c(-n2sc3ccccc3c2=O)c1 [Compound 16, 2-(2,5-dimethylphenyl) benzo[d]isothiazol-3(2H)-one] | a measurable inhibition of PMM2 was observed |  | 
O=c1c2cc(F)ccc2sn1-c1ccccc1 [Compound 19, 5-Fluoro-2-phenylbenzo[d]isothiazol-3(2H)-one] |  | no GSH adducts were observed | predicted permeability (in words) [2]: moderately permeable
O=C(O)Cc1ccccc1Nc1c(Cl)cccc1Cl [diclofenac, reference compound] |  | showed the expected conjugate masses | 
